From patent US9974767B2, “Statins in the treatment of muscular dystrophies and myopathies” (University of Washington, priority 2014, dated 2018)
Values joined by “and” are separate entries in the source; they are usually repeats but may differ in a detail not shown here. Identical values can stand only once. “Also recorded” adds a separate entry of the source.

Key:
mdx mice [1] = assay: Diaphragm specific force, ex vivo muscle strips; format: in vivo, mouse
Text: Therefore, it is often difficult to fully evaluate the therapeutic potential of these compounds. When compared with results obtained with a clinically relevant dystrophin gene therapy approach, the magnitude of increased diaphragm force in Simvastatin-treated mice (25%) is quite impressive. Specifically, systemic delivery of a micro-dystrophin-expressing AAV vector to mdx mice provides a slightly lower (20%) average improvement in diaphragm specific force.
In mdx mice, the diaphragm is the most severely affected skeletal muscle and diaphragm dysfunction is a major cause of respiratory failure in DMD.
The diaphragm most closely recapitulates the functional deficits and fibrotic deposition that occur in DMD. […] The replacement of muscle fibers with fibrotic connective tissue is a major cause of impaired muscle force generation in DMD and therefore an important therapeutic target. […] Quantification of total collagen I levels in diaphragm muscles by hydroxyproline assay also indicated a 50% reduction in fibrosis for mdx Sim mice (FIG. 13E).
Diaphragm function, ex vivo, was measured as described previously. Briefly, diaphragm strips (2-3 mm wide) were perfused with a physiological solution bubbled with 95% O2-5% CO2. Stimulation was provided by two platinum electrodes, attached along the sides of the chamber. A lengthforce curve, established using 120 Hz isometric contractions (300 ms duration spaced 1 min apart, established the optimum length (length producing maximum tetanic force), which was later used to calculate the specific force (force divided by cross-sectional area).

mdx mice [2] = assay: H&E histology of tibialis anterior (TA) muscle; format: in vivo, mouse; settings: mdx Sim vs mdx Con, 8 months treatment
WT mice = assay: H&E histology of TA muscle, wild type mice; format: in vivo, mouse; settings: 8 months, 5-10 mg/kg/day
Method: The dose used (5-10 mg/kg/day) is equivalent to a low to moderate dose in humans.
DMD is a chronic, progressively degenerative disease and consequently potential treatments need to be effective over many years. […] The calculated dose given to the mice was between 5-10 mg/kg/day. This would equate to 20-40 mg/day for a 10 yea old DMD boy weighing 30 kg, based on mouse to human equivalence calculations, which is within the recommended dose range of statins for children.
Muscles were imbedded in O.C.T compound and frozen in isopentane cooled in liquid nitrogen. Cryosections (10 μm thick) were placed on a glass side. Sections were fixed with either ice-cold methanol or 2% paraformaldehyde for 5 to 10 min. Some sections were stained with Haemotoxylin and Eosin (H & E) using standard procedures. For immunofluorescence, sections were incubated in blocking buffer (0.8% BSA and 1% fish gelatin in PBS) for 45 min. […] For fluorescence quantification (CD68, fibronectin and myosin heavy chains), images were converted to grayscale in Image J and a threshold applied to calculate the area of fluorescence as a percent of the total area of the section. Fibers with central nuclei were expressed as a percent of total fibers with detectable nuclei (ie. both central and peripheral).

[3] = test system: immortalized mdx myoblast cell line; assay: Differentiation of immortalized mdx myoblasts into myotubes; format: cell-based, mouse
Method: However, the statin concentrations required to induce these deleterious effects in vitro are typically 1 μM or greater. These concentrations are considerably (100-1000 times) higher than those found in vivo in mice and humans. […] We then carried out an in vitro experiment using an immortalized mdx myoblast cell line.
Immortomouse mdx myoblasts were grown on gelatin coated plates and until 70% confluence in DMEM supplemented with 10% HS, 20% FBS, 0.5% chicken embryo extract and 20 units/ml of γ-interferon. […] Myotubes were washed in PBS, fixed in ice-cold methanol for 10 min, and H&E stained. Images of myotubes were taken with a Nikon inverted microscope (W.M. Keck Center, University of Washington).

CD68 = CD68 immunofluorescence of TA muscle sections (inflammation); format: in vivo, mouse; settings: mdx Sim vs mdx Con, 8 months treatment
Method: Next, we quantified the extent of inflammation, a key feature of the dystrophic muscle pathology, by immunofluorescence of TA muscle sections with CD68, a marker of macrophages and other inflammatory cells.
Muscles were imbedded in O.C.T compound and frozen in isopentane cooled in liquid nitrogen. Cryosections (10 μm thick) were placed on a glass side. Sections were fixed with either ice-cold methanol or 2% paraformaldehyde for 5 to 10 min. Some sections were stained with Haemotoxylin and Eosin (H & E) using standard procedures. For immunofluorescence, sections were incubated in blocking buffer (0.8% BSA and 1% fish gelatin in PBS) for 45 min. Primary antibodies; Fibronectin (Sigma), CD68 (Abcam), Caveolin3 (BD Biosciences), and Myosin Heavy Chain 1, 2A and 2B (Developmental Studies Hybridoma Bank) were added for 1 hr 30 min at room temperature. AlexaFluor conjugated secondary antibodies (Life Technologies) were then added for 1 hr 30 min. In some experiments, DAPI was also added to detect nuclei. […] For fluorescence quantification (CD68, fibronectin and myosin heavy chains), images were converted to grayscale in Image J and a threshold applied to calculate the area of fluorescence as a percent of the total area of the section. Fibers with central nuclei were expressed as a percent of total fibers with detectable nuclei (ie. both central and peripheral). […]

mdx mice [4] = assay: Plasma creatine kinase (CK) activity as measure of whole-body muscle damage; format: in vivo, mouse

CCC(C)(C)C(=O)O[C@H]1C[C@@H](C)C=C2C=C[C@H](C)[C@H](CC[C@@H]3C[C@@H](O)CC(=O)O3)[C@H]21 [Simvastatin, simvastatin]
improvement of diaphragm specific force (mdx mice [1]; mdx Sim vs mdx Con, 8 months treatment, stimulation 1 to 120 Hz): 25% and 20-25% | improvement of diaphragm specific force (mdx mice [1]; mdx Sim vs mdx Con, 8 months treatment, stimulation 1 to 120 Hz, listed as simvastatin): 20-25% | improvement of diaphragm specific force (mdx mice [1]; old mdx mice, 2 months treatment from 12 months of age, 10 to 120 Hz, vs untreated mdx): 20-30% | number of centrally nucleated (regenerated) muscle fibers (mdx mice [2]): comparable number | muscle histology of WT mice (damage, inflammation) (WT mice): no effect; also recorded: no evidence of muscle damage or inflammation | muscle histology of WT mice (damage, inflammation) (WT mice; listed as simvastatin): no effect | muscle differentiation, myotube formation ([3]; 50 to 500 nM, 3 days): appeared similar to untreated cells | doses at which simvastatin became more toxic, number of viable cells decreased ([3]; 3 days of treatment): ≥ 1 µM | reduction of inflammatory cell levels (CD68) (CD68): ~70% | reduction in plasma creatine kinase (CK) activity level (mdx mice [4]; mdx Sim vs mdx Con, oral 5-10 mg/kg/day for 8 months from 3 weeks of age): 85% | reduction of CK levels compared to untreated mdx mice (mdx mice [4]; mdx mice, 8 months, drinking water 10 mg/kg/day): ~8 fold
